Measurements: PubChem BioAssay (NCI)
Values joined by “and” are separate entries in the source; they are usually repeats but may differ in a detail not shown here. Equal values may be shown once.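 Interpolation was linear, between the two tested concentrations surrounding the appropriate level; five concentrations were tested over 48 hours in 96-well plates. Abbreviation: GI50, concentration required for 50% inhibition of growth. TGI: concentration producing complete growth inhibition.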

How the values were obtained:
Test in all cases: inhibition of tumour cell growth, NCI panel, 48 h
[1] = test system: MDA-MB-231 breast
[2] = test system: MCF7 breast
[3] = test system: UACC-257 melanoma
[4] = test system: EKVX NSCLC
[5] = test system: SK-OV-3 ovarian
[6] = test system: CCRF-CEM leukemia
[7] = test system: COLO 205 colon

For `O=C(Nc1ccccn1)c1cc2c(cc1Cl)Sc1nccn1S2(=O)=O`, the TGI [1] was 53 µM, the TGI [2] was > 100 µM and the TGI [3] was > 100 µM. The TGI [4] was 94.5 µM, the TGI [5] was > 100 µM and the TGI [6] was 95.9 µM. For the same compound, the TGI [7] was 83.5 µM.

`COc1ccc(-c2cc(-c3ccncc3)nc(N)c2-c2ccc(F)cc2)cc1` was tested, and the TGI [1] was > 100 µM, the TGI [2] was > 100 µM and the TGI [3] was > 100 µM. For the same compound, the TGI [4] was > 100 µM, the TGI [5] was > 100 µM and the TGI [6] was > 100 µM. The TGI [7] was 97.3 µM.

`COc1ccc(/C=C/C(=O)N[C@@H]2C(=O)N3[C@@H]2SC(C)(C)[C@@H]3C(=O)O)cc1OC` was tested, and the TGI [1] was > 100 µM, the TGI [2] was > 100 µM and the TGI [3] was > 100 µM. The TGI [4] was > 100 µM, the TGI [5] was > 100 µM and the TGI [6] was > 100 µM. For the same compound, the TGI [7] was > 100 µM.

`COC(=O)CCC(=O)c1ccc2c(c1)CC1(Cc3ccccc3C1)C2` was tested, and the TGI [1] was > 100 µM, the TGI [2] was > 100 µM and the TGI [3] was 84.2 µM. For the same compound, the TGI [4] was > 100 µM, the TGI [5] was > 100 µM and the TGI [6] was 45.4 µM. The TGI [7] was 82.3 µM.

In the case of `O=Cc1ccc(Oc2c3ccccc3nc3ccccc23)cc1`, the TGI [1] was 13.3 µM, the TGI [2] was 45.4 µM and the TGI [3] was 4.89 µM. For the same compound, the TGI [4] was 40.2 µM, the TGI [5] was 21.6 µM and the TGI [6] was 6.72 µM. The TGI [7] was 10.1 µM.

In the case of `C[C@@H](Br)[C@@H]1CC[C@H]2c3[nH]c4ccccc4c3CCN2C1`, the TGI [1] was 41.1 µM, the TGI [2] was 77.6 µM and the TGI [3] was > 100 µM. For the same compound, the TGI [4] was > 100 µM, the TGI [5] was 87.2 µM and the TGI [6] was 54.8 µM. It also gave a TGI [7] of 26.3 µM.

In the case of `Cc1cccc2c1CC1(Cc3c(C)cccc3C1=O)C2=O`, the TGI [1] was > 100 µM, the TGI [2] was > 100 µM and the TGI [3] was > 100 µM. The TGI [4] was > 100 µM, the TGI [5] was > 100 µM and the TGI [6] was > 100 µM.

`Cc1csc(CP(=O)(OC(C)C)OC(C)C)n1` was tested, and the TGI [1] was > 100 µM, the TGI [2] was > 100 µM and the TGI [3] was > 100 µM. The TGI [4] was > 100 µM, the TGI [5] was > 100 µM and the TGI [7] was > 100 µM.

In the case of `COc1ccc(-c2c(C#N)c(N)n(C3OC(COC(C)=O)C(OC(C)=O)C(OC(C)=O)C3OC(C)=O)c(=S)c2C#N)cc1` (stereo unspecified), the TGI [1] was > 100 µM and 71.2 µM, the TGI [2] was > 100 µM and 60.9 µM and the TGI [3] was > 100 µM and 44.5 µM. For the same compound, the TGI [4] was > 100 µM, the TGI [5] was 78.1 µM and 85 µM and the GI50 [6] was > 100 µM and 46.5 µM. The TGI [6] was > 100 µM, the GI50 [7] was > 100 µM and 21.2 µM and the TGI [7] was > 100 µM and 43.2 µM.

`FC(F)(F)c1ccc(N=NN2CCCC2)cc1` was tested, and the TGI [1] was > 100 µM, the TGI [2] was > 100 µM and the TGI [3] was > 100 µM. For the same compound, the TGI [4] was > 100 µM, the TGI [5] was > 100 µM and the TGI [6] was > 100 µM. The TGI [7] was > 100 µM.

Compound `C=CCOC1=C(OC(C)=O)C(C2COC(C)(C)O2)OC1=O` (stereo unspecified) has a TGI [1] of 34.5 µM, a TGI [2] of 32.8 µM and a TGI [3] of 39.7 µM. The TGI [4] was 39.9 µM, the TGI [5] was > 100 µM and the TGI [6] was 41.7 µM. It also gave a TGI [7] of 36.9 µM.

With `COC1=C2C[C@](OC)(C#CC=CC#CC2O)CC1(C)C` (stereo partly specified) the TGI [1] was > 100 µM, the TGI [2] was > 100 µM and the TGI [3] was > 100 µM. For the same compound, the TGI [4] was > 100 µM, the TGI [6] was > 100 µM and the TGI [7] was > 100 µM.

`CCN(CC)C(=O)CCNC(C)Cc1c[nH]c2ccccc12` (stereo unspecified) was tested, and the TGI [1] was > 100 µM, the TGI [3] was > 100 µM and the TGI [4] was > 100 µM. For the same compound, the TGI [5] was > 100 µM, the TGI [6] was > 100 µM and the TGI [7] was > 100 µM.

For `CCOc1ccnc2c(OC)c(C)c3nc4ccccc4nc3c12`, the TGI [1] was > 100 µM, the TGI [2] was > 100 µM and the TGI [3] was > 100 µM. For the same compound, the TGI [4] was > 100 µM, the TGI [5] was > 100 µM and the TGI [6] was > 100 µM. The TGI [7] was > 100 µM.

In the case of `O=c1oc2ccc([N+](=O)[O-])cc2cc1-c1csc(-c2ccccc2)n1`, the TGI [1] was > 100 µM, the TGI [2] was > 100 µM and the TGI [3] was > 100 µM. The TGI [4] was > 100 µM, the TGI [5] was > 100 µM and the TGI [6] was > 100 µM. For the same compound, the TGI [7] was > 100 µM.

With `Cc1nc2ccccc2n1Cc1ccc(NC(=S)NC2CCCCC2)cc1` the TGI [1] was > 100 µM, the TGI [2] was 72.3 µM and the TGI [3] was > 95.1 µM. The TGI [4] was > 92.9 µM, the TGI [5] was > 100 µM and the TGI [6] was > 100 µM. The TGI [7] was > 100 µM.

`COc1cc(CNC(=O)CCCCCCCCCCSC#N)ccc1O` was tested, and the TGI [1] was > 100 µM, the TGI [2] was 34.9 µM and the TGI [3] was 41.1 µM. It also gave a TGI [4] of 54.6 µM, a TGI [5] of 25.8 µM and a TGI [6] of 62.9 µM. For the same compound, the TGI [7] was 94.5 µM.

In the case of `CCOC1=NC(C(F)(F)F)(C(F)(F)F)N=C(/N=C(/N)N(C)C(C(C)C)P(=O)(OC(C)C)OC(C)C)O1` (stereo unspecified), the TGI [1] was > 100 µM, the TGI [2] was > 100 µM and the TGI [3] was > 100 µM. The TGI [4] was > 100 µM, the TGI [5] was > 100 µM and the TGI [6] was 83.5 µM. For the same compound, the TGI [7] was > 100 µM.

With `COc1ccc(/C=C2/C(=O)C(c3ccccc3)N(c3ccccc3)C2=O)cc1OC` (stereo unspecified) the TGI [1] was > 10 µM, the TGI [2] was > 10 µM and the TGI [3] was > 10 µM. For the same compound, the TGI [4] was > 10 µM, the TGI [5] was > 10 µM and the TGI [6] was > 10 µM. For the same compound, the TGI [7] was > 10 µM.
